Here are results for 23 compounds from patent publication EP4559912A1, “SULFUR-CONTAINING HETEROAROMATIC RING COMPOUND, PHARMACEUTICAL COMPOSITION THEREOF, AND USE THEREOF” (Evopoint Biosciences Co., Ltd., priority 2022, dated 2024).

This test addresses His-GST tagged PARG (Homo sapiens, UniProt Q86W56). Description: In vitro PARG assay (TR-FRET). The format is biochemical. To be noted: 4 pM His-GST tagged PARG, 30 nM Bio PARylated PARP1 substrate, 20 min at room temperature, TR-FRET Em 665/Em 615. The procedure: The in vitro PARG assay experiment was conducted in a standard 384-well plate with a total volume of 15 µL. To a 384-well plate containing the test compound was added 5 µL of an enzyme reaction mixture (50 mM Tris-HCL pH 7.5, 50 mM KCL, 0.01% Triton X-100, 0.01% BSA, and 4 pM His-GST tagged PARG). The plate was incubated at room temperature for 10 min, and then 5 µL of a substrate mixture (50 mM Tris-HCL pH 7.5, 50 mM KCL, 0.01% Triton X-100, 0.01% BSA, and 30 nM Bio PARylated PARP1) was added to initiate the reaction. The plate was further incubated at room temperature for 20 min, and then 5 µL of a detection reagent was added to terminate the reaction. The detection reagent was prepared from a buffer (50 mM Tris-HCl pH 7.5, 50 mM KCL, 0.01% Triton X-100, and 0.01% BSA), 3 µM compound PDD00017273, 1.5× Mab anti-6HIS XL665 (Cisbio: 61HISXLA), and 1.5× streptavidin terbium cryptate (Cisbio: 610SATLA). The final concentrations of the compound PDD00017273, the 1.5× Mab anti-6HIS XL665 (Cisbio: 61HISXLA), and the 1.5× streptavidin terbium cryptate were 1 µM, 0.5×, and 0.5×, respectively. After incubation in the dark at room temperature for 120 min, TR-FRET signals were measured at Ex 340, Em 665, and Em 615. The ratio for each well was calculated as Em 665/Em 615 (the ratio here corresponds to the ratio of fluorescence signals at the wavelengths).

His-GST tagged PARG, sequence (Q86W56 whole entry): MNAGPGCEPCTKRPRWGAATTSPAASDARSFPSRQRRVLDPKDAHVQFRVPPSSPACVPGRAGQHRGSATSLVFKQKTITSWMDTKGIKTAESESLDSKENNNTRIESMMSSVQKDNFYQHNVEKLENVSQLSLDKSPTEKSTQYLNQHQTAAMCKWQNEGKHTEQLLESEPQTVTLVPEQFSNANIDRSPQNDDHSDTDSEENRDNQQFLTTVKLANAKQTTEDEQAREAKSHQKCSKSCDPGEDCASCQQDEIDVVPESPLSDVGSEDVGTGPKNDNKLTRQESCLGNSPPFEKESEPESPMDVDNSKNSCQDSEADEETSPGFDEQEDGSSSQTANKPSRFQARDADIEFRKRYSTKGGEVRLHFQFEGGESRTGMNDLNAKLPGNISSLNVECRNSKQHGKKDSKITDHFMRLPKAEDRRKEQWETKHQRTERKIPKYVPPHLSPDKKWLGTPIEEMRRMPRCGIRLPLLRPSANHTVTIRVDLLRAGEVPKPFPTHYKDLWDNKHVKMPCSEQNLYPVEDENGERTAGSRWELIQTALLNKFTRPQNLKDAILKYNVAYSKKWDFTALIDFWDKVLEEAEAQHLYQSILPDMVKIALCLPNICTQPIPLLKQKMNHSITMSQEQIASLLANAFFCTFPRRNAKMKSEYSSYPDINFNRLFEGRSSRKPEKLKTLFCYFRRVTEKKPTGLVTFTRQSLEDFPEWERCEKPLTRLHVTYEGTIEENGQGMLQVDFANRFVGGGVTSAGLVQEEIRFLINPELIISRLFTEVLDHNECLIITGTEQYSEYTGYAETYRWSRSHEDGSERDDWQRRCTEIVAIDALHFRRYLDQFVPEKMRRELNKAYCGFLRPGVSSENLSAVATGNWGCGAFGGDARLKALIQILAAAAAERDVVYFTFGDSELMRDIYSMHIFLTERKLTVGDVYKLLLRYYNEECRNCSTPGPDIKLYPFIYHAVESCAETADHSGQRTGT

Regarding `CC(C)C(=O)C(=O)N1CCN(c2cc(S(=O)(=O)NC3(C#N)CC3)cc3c2cnn3-c2nnc(C(F)F)s2)CC1` [EVO29417], the 50% inhibitory concentration (IC50) is less than 100 nM.
`CO[C@@H](C(=O)N1CCN(c2cc(S(=O)(=O)NC3(C#N)CC3)cc3c2cnn3-c2nnc(C(F)F)s2)C[C@H]1C)C(C)C` [EVO29418] showed an IC50 of less than 100 nM.
The same measure for `CO[C@@H](C(=O)N1CCN(c2cc(S(=O)(=O)NC3(C)CC3)cc3c2cnn3-c2nnc(C(F)F)s2)C[C@H]1C)C(C)C` [EVO29419]: less than 100 nM; for `CO[C@@H](C(=O)N1CCN(c2cc(S(=O)(=O)NC3(C#N)CC3)cc3c2cnn3-c2nnc(C)s2)C[C@H]1C)C(C)C` [EVO29420]: less than 100 nM; for `CO[C@@H](C(=O)N1CCN(c2cc(S(=O)(=O)NC3(C)CC3)cc3c2cnn3-c2nnc(C)s2)C[C@H]1C)C(C)C` [EVO29421]: less than 100 nM.
The same measure for `COC(C)(C)C(=O)N1CCN(c2cc(S(=O)(=O)NC3(C#N)CC3)cc3c2cnn3-c2nnc(C(F)F)s2)C[C@H]1C` [EVO29426]: less than 100 nM; for `C[C@@H]1CN(c2cc(S(=O)(=O)NC3(C#N)CC3)cc3c2cnn3-c2nnc(C(F)F)s2)CCN1C(=O)[C@H](O)C(C)(C)C` [EVO29451]: less than 100 nM.
The same measure for `C[C@@H]1CN(c2cc(S(=O)(=O)NC3(C#N)CC3)cc3c2cnn3-c2nnc(C(F)F)s2)CCN1C(=O)[C@](C)(O)C(F)(F)F` [EVO29462]: less than 100 nM.
The compound `C[C@@H]1CN(c2cc(S(=O)(=O)NC3(C#N)CC3)cc3c2cnn3-c2nnc(C(F)F)s2)CCN1C(=O)[C@@](C)(O)C(F)(F)F` [EVO29463] came in with an IC50 of less than 100 nM.
On to `C[C@@H]1CN(c2cc(S(=O)(=O)NC3(C)CC3)cc3c2cnn3-c2nnc(C(F)F)s2)CCN1C(=O)C(C)(C)O` [EVO29469], for which the IC50 is less than 100 nM.
The same measure for `C[C@@H]1CN(c2cc(S(=O)(=O)NC3(C)CC3)cc3c2cnn3-c2nnc(C(F)F)s2)CCN1C(=O)[C@](C)(O)C(F)(F)F` [EVO29496]: less than 100 nM; for `COC(C)(C)C(=O)N1CCN(c2cc(S(=O)(=O)NC3(C)CC3)cc3c2cnn3-c2nnc(C(F)F)s2)C[C@H]1C` [EVO29503]: less than 100 nM; for `CCOC(C)(C)C(=O)N1CCN(c2cc(S(=O)(=O)NC3(C)CC3)cc3c2cnn3-c2nnc(C(F)F)s2)C[C@H]1C` [EVO29507]: less than 100 nM.
The same measure for `C[C@@H]1CN(c2cc(S(=O)(=O)NC3(C#N)CC3)cc3c2cnn3-c2nnc(C(F)F)s2)CCN1C(=O)C(C)(C)OC(F)F` [EVO29592]: less than 100 nM; for `C[C@@H]1CN(c2cc(S(=O)(=O)NC3(C#N)CC3)cc3c2nnn3-c2nnc(C(F)F)s2)CCN1C(=O)[C@H](O)C(C)(C)C` [EVO29725]: 100 to 500 nM; for `CO[C@@H](C(=O)N1CCN(c2cc(S(=O)(=O)NC3(C#N)CC3)cc3c2cnn3-c2nnc(C(F)F)s2)C[C@H]1C)C(C)(C)C` [EVO29736]: less than 100 nM.
With `C[C@@H]1CN(c2cc(S(=O)(=O)NC3(C#N)CC3)cc3c2c(F)nn3-c2nnc(C(F)F)s2)CCN1C(=O)[C@H](O)C(C)(C)C` [EVO29757] the figure was less than 100 nM.
The compound `C[C@@H]1CN(c2cc(S(=O)(=O)NC3(C#N)CC3)cc3c2c(F)nn3-c2nnc(C(F)F)s2)CCN1C(=O)[C@@](C)(O)C(F)(F)F` [EVO29761] came in with an IC50 of less than 100 nM.
The same measure for `C[C@@H]1CN(c2cc(S(=O)(=O)NC3(C#N)CC3)cc3c2c(F)nn3-c2nnc(C(F)F)s2)CCN1C(=O)[C@](C)(O)C(F)(F)F` [EVO29762]: less than 100 nM.
With `CC(C)(C)[C@@H](O)C(=O)N1CCN(c2cc(S(=O)(=O)NC3(C#N)CC3)cc3c2cnn3-c2nnc(C(F)F)s2)C[C@H]1CF` [EVO29778] the figure was less than 100 nM.
With `C[C@@H]1CN(c2cc(S(=O)(=O)NC3(C#N)CC3)cc3c2ccn3-c2nnc(C(F)F)s2)CCN1C(=O)[C@H](O)C(C)(C)C` [EVO29788] the figure was less than 100 nM; with `C[C@@H]1CN(c2c(F)c(S(=O)(=O)NC3(C#N)CC3)cc3c2c(F)nn3-c2nnc(C(F)F)s2)CCN1C(=O)[C@H](O)C(C)(C)C` [EVO29792], 100 to 500 nM; with `C[C@@H]1CN(c2cc(S(=O)(=O)NC3(C)CC3)cc3c2c(F)nn3-c2nnc(C(F)F)s2)CCN1C(=O)[C@H](O)C(C)(C)C` [EVO29798], less than 100 nM.
